How the values were obtained:
[1] = tested on: elastase-treated mice (emphysema); experiment: Elastase-induced emphysema in mice; format: in vivo; conditions: HDL 75 mg/kg; AAT alone 3.75 mg/kg; i.v., 4 injections
Method: First, large amount of HDL purified from human plasma by ultracentrifugation was pooled in order to work with the same batch of HDL and HDL enriched with AAT. AAT was incubated for 16 hours at 37° C. under gentle agitation. […] A Western-Blot for AAT and apolipoprotein A-I was performed on HDL and HDL loaded with AAT. […] Anti-elastase assay was performed in parallel, corroborating the results obtained by WB. These experiments quantify AAT in enriched HDL. The same amount of free AAT was then injected in a control group. The aim of this experiment is to test whether HDL-AAT prevent more the development of emphysema relative to AAT injected alone. HDL containing naturally AAT are also injected in another group.
45 mice are subjected to intra-tracheal elastase instillation.
The mice were sacrificed 28 day after initial instillation of elastase, and the emphysema was semi-quantified by scoring alveoli destruction (double blind determination by two independent pathologists).

[2] = tested on: collagen IV (basal lamina of cerebral microvessels); experiment: Collagen IV immunoreactivity in cerebral microvessels (filament MCAO); format: in vivo, Sprague-Dawley rats; conditions: 24 hours after stroke; combination relative to tPA alone
Method: Frozen sections were fixed with 3.7% paraformaldehyde and blocked with 10% goat serum. Sections were incubated overnight at 4° C. with a rabbit polyclonal to collagen IV (2 μg/mL, Abcam) for detection of basal lamina of intracerebral vessels. FITC-conjugated Bandeiraea Simplicifolia Lectin I (isolectin B4) (5 μg/mL, Vector Laboratories) was used to visualize endothelial cells. Non-immune rabbit IgG were included in each set of experiments as primary antibody to test the specificity of the signal. We used Alexa-Fluor® 555 as secondary antibodies. Immunostaining was analysed with a fluorescent microscope interfaced with a digital capture system. All immunohistological evaluations were carried out by an observer who was blinded to the treatment. For semi-quantification of the collagen type IV expression, three fields of each territory were acquired using a×10 objective. A threshold of fluorescence intensity, which encompasses positive vessels on the contralateral image, was applied to each corresponding ipsilateral image. IHC analysis was performed in filament MCAO model.

[3] = acute phase of stroke; cited from earlier work
embolic MCAO = experiment: Embolic MCAO (eMCAO) with tPA (Example 9)
Description: STAIR recommendations have been followed to avoid bias due to experimental design 10. Animal care and experimental protocols were approved by the Animal Ethics Committee of the INSERM-University Paris 7. Male Sprague-Dawley rats (Janvier, France) weighing 300 to 350 g, were anesthetized by isoflurane mixed with air (4% for induction; 1% during surgery), under spontaneous respiration. Two different models of focal cerebral ischemia were used as requested by STAIR recommendations: embolic (eMCAO) and transient filament MCAO (fMCAO). Focal cerebral ischemia was induced by intraluminal occlusion of the middle cerebral artery for 4 hours. eMCAO was induced by injection of a preformed clot at the origin of MCA as already described. Continuous laser Doppler flowmetry (VMS, Moor Instrument) was used to monitor regional cerebral perfusion to ensure the adequacy of filament MCA occlusion (perfusion decreased to <20% of preischemic baselines). […] Saline (2.0 mL/kg body weight) with or without recombinant tPA (10 mg/kg body weight; Actilyse, Boehringer Ingelheim) was administered (10% bolus, 90% continuous infusion) to rats via the right femoral vein. The relatively high dose of tPA was necessary to achieve a fibrinolytic effect in rats similar to that of thrombolytic therapy in humans. Continuous tPA or saline infusion (for 30 min. Harvard Apparatus Infusion Pump) started 4 hours after stroke onset, immediately before recanalization (after withdrawal of the filament in fMCAO), or 4 hours after clot placement in the MCA. […] Glycemia, arterial blood pressure and blood gases were also monitored during surgery. […]
(§1) Seven coronal sections of the brain (2 mm in thickness) were stained with 2% 2,3,5-triphenyltetrazolium chloride (TTC, Sigma-Aldrich) for 20 minutes at room temperature. […] Ten-micrometer sections were cut from the caudal site of all 7 slices and analyzed before TTC staining. Areas of hemorrhagic transformation from these 7 brain sections were measured using Photoshop software by semi-automatic selection of extravasated erythrocytes.

hCMEC/D3 cells = experiment: In vitro blood-brain barrier model with tPA under OGD; format: cell-based, human
Method: The human brain endothelial cell line hCMEC/D3 kindly provided by Dr. P. O. Couraud. Cells were cultured in complete EBM-2 medium (Endothelial Basal Medium+2.5% of fetal calf serum and supplements containing hydrocortisone and growth factors).
OGD (Oxygen Glucose Deprivation) conditions were obtained by using DMEM medium without glucose (Gibco) versus 1 g/L glucose DMEM for non-OGD conditions. Oxygen deprivation was obtained by using a hypoxia chamber (Billups-Rothenberg) where atmospheric air was replaced by a mix of gas (0% O2, 5% CO2, 95% N2, Air Product). DMEM used for OGD conditions was equilibrated with the same mix.
For permeability experiments, hCMEC/D3 cells were seeded at 5.105 cells/cm^2 on collagen inserts (PCF filters, 0.4 μm pore size, Millicell 24-well plates, Millipore) in complete EBM-2. Cells were grown for 14 days post-confluence before use. Permeability was assessed using fluorescein isothiocyanate (FITC) labelled dextran (70 kDa molecular weight). […] 200 μL from the collecting wells were transferred into a 96-well plate, and the dextran fluorescence was determined on the microplate reader at 485 nm (excitation) and 538 nm (emission). Fluorescence was converted to concentration using a standard curve. The volume cleared was calculated from the ratio of dextran concentration in each sample to the applied concentration (0.385 mg/mL). The endothelial permeability coefficient Pe (cm/min) was calculated by determining the volumes of clearance of dextran with or without cells. The cleared volume was calculated from the […], and plotted against time. PS (permeability surface) was calculated from 1/PS=1/PSe−1/PSf, where PSe is the slope of clearance in the presence of cells and PSf is the slope for a blank insert (cell free)16. […]
For detection of fibronectin in HCMEC/D3 cell culture supernatant, 5 μL of conditioned medium were analyzed by SDS-8% PAGE. […]

blood-brain barrier = experiment: IgG extravasation in filament MCAO model; format: in vivo, Sprague-Dawley rats; conditions: tPA vs saline; combination vs tPA alone
Method: Blood-brain barrier permeability was evaluated in vivo by using fluorescence detection of IgG extravasation in filament MCAO model. At 24 hours after stroke, rats were deeply anesthetized with pentobarbital and transcardially perfused with saline. Brains were removed, cut in 2 mm coronal sections, embedded with OCT and frozen. Ten μm sections (at +0.70 mm posterior to bregma) were prepared. Sections were prepared and incubated overnight at 4° C. with donkey anti-rat IgG antibodies (5 μg/mL, Molecular Probes) labelled with Alexa Fluor® 488. IgG extravasation was quantified semi-automatically with morphometry software (Histolab 6.1.5, Microvision Instruments).

transient filament MCAO = experiment: Transient filament MCAO (fMCAO) with tPA (Example 9)
Description: STAIR recommendations have been followed to avoid bias due to experimental design 10. Animal care and experimental protocols were approved by the Animal Ethics Committee of the INSERM-University Paris 7. Male Sprague-Dawley rats (Janvier, France) weighing 300 to 350 g, were anesthetized by isoflurane mixed with air (4% for induction; 1% during surgery), under spontaneous respiration. Two different models of focal cerebral ischemia were used as requested by STAIR recommendations: embolic (eMCAO) and transient filament MCAO (fMCAO). Focal cerebral ischemia was induced by intraluminal occlusion of the middle cerebral artery for 4 hours. eMCAO was induced by injection of a preformed clot at the origin of MCA as already described. Continuous laser Doppler flowmetry (VMS, Moor Instrument) was used to monitor regional cerebral perfusion to ensure the adequacy of filament MCA occlusion (perfusion decreased to <20% of preischemic baselines). […] Saline (2.0 mL/kg body weight) with or without recombinant tPA (10 mg/kg body weight; Actilyse, Boehringer Ingelheim) was administered (10% bolus, 90% continuous infusion) to rats via the right femoral vein. The relatively high dose of tPA was necessary to achieve a fibrinolytic effect in rats similar to that of thrombolytic therapy in humans. Continuous tPA or saline infusion (for 30 min. Harvard Apparatus Infusion Pump) started 4 hours after stroke onset, immediately before recanalization (after withdrawal of the filament in fMCAO), or 4 hours after clot placement in the MCA. After saline or tPA administration, rats were returned to their cages. Body temperature was maintained at 37° C.±0.5 with a heating pad for the duration of surgery. Glycemia, arterial blood pressure and blood gases were also monitored during surgery. […] Computer-based randomization was used to allocate drug regimens to each group. Experiments were blinded and the operator was unaware of group allocation during surgery and outcome assessment.
as §1, with “temperature. […] Volume calculation with oedema correction was performed blindly using the following formula: 100× (contralateral hemisphere volume−non infarct ipsilateral hemisphere volume)/contralateral hemisphere volume.” for “temperature.”

| Substance | protective effect on development of emphysema [1] | number of collagen IV immunoreactive vessels in the infarcted area [2] | increase in symptomatic cerebral haemorrhage [3] [fold] | infarct volume (embolic MCAO; 24 hours, tPA and HDL alone vs saline, combination vs tPA alone) | mortality rate (embolic MCAO; tPA 10 mg/kg 4 hours after stroke onset, 24 hours) [%] | mortality (embolic MCAO; tPA and HDL alone vs saline, combination vs tPA alone) | VE-cadherin intercellular junction organization (hCMEC/D3 cells; 200 nM tPA and/or 400 μg/mL HDL) | release of soluble fibronectin/fragments in supernatants (hCMEC/D3 cells; 200 nM tPA and/or 400 μg/mL HDL, Western Blot) | BBB permeability in vitro (hCMEC/D3 cells; 200 nM tPA, 4 hours of stimulation) | IgG extravasation in the ischemic hemisphere (blood-brain barrier) | edema surrounding ischemic cerebral vessels (transient filament MCAO; compared to HDL+tPA group) | infarct volume (transient filament MCAO; fMCAO, 24 hours, tPA and HDL alone vs saline, combination vs tPA alone) | mortality rate (transient filament MCAO; fMCAO, tPA 10 mg/kg 4 hours after stroke onset, 24 hours) [%] | mortality (transient filament MCAO; fMCAO, tPA and HDL alone vs saline, combination vs tPA alone) |
| --- | --- | --- | --- | --- | --- | --- | --- | --- | --- | --- | --- | --- | --- | --- |
| AAT: 52 kD glycoprotein, natural inhibitor of neutrophil elastase | mild protective effect | – | – | – | – | – | – | – | – | – | – | – | – | – |
| tPA: recombinant tissue plasminogen activator, thrombolytic drug approved for stroke | – | decreased | 10 | increased infarct volume | 56.25 | increased | induced a disorganization of intercellular junctions | induced an important release of fibronectin/fragments | neither tPA nor OGD were sufficient to induce increased BBB permeability | significantly increased IgG extravasation | Large edema | increased infarct volume | 86.05 | increased |

Source: patent publication US9415094B2, “Method of reducing side effects associated with administration of tissue plasminogen activator (tPA)” (INSERM (Institut National de la Sante et de la Recherche …, priority 2009, dated 2016)
